Experimental data taken from PubChem BioAssay (NCI).
Several values for one entry are separate records, joined by “and”; a condition that tells them apart may be missing. Identical values can stand only once.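 Briefly, cells in 96-well plates were exposed to five compound concentrations for 48 h, and endpoints were estimated by linear interpolation. GI50 = concentration required for 50% inhibition of growth. TGI marks complete inhibition of growth.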

Columns and labels:
Test in all cases: inhibition of tumour cell growth, NCI panel, 48 h
[1] = tested on: NCI-H226 lung
[2] = tested on: DU-145 prostate
[3] = tested on: UO-31 renal
[4] = tested on: CAKI-1 renal
[5] = tested on: EKVX NSCLC
[6] = tested on: NCI-H460 lung
[7] = tested on: LOX IMVI melanoma
[8] = tested on: HOP-62 NSCLC
[9] = tested on: OVCAR-8 ovarian
[10] = tested on: SK-MEL-28 melanoma
[11] = tested on: 786-0 renal
[12] = tested on: HOP-92 NSCLC
[13] = tested on: HCC-2998 colon
[14] = tested on: T-47D breast
[15] = tested on: SF-539 CNS
[16] = tested on: SNB-75 CNS
[17] = tested on: SR leukemia
[18] = tested on: MOLT-4 leukemia
[19] = tested on: IGROV1 ovarian
[20] = tested on: MALME-3M melanoma
[21] = tested on: UACC-62 melanoma
[22] = tested on: M14 melanoma
[23] = tested on: TK-10 renal
[24] = tested on: NCI-H23 lung
[25] = tested on: SK-MEL-5 melanoma
[26] = tested on: HT29 colon
[27] = tested on: MDA-MB-231 breast
[28] = tested on: MDA-MB-435
[29] = tested on: SNB-19 CNS
[30] = tested on: HL-60(TB) leukemia
[31] = tested on: NCI-H522 lung
[32] = tested on: SN12C renal
[33] = tested on: BT-549 breast
[34] = tested on: OVCAR-3 ovarian
[35] = tested on: NCI/ADR-RES ovarian
[36] = tested on: ACHN renal
[37] = tested on: SK-MEL-2 melanoma
[38] = tested on: RPMI-8226 leukemia
[39] = tested on: SF-295 CNS
[40] = tested on: SW-620 colon
[41] = tested on: PC-3 prostate
[42] = tested on: UACC-257 melanoma
[43] = tested on: HCT-116 colon
[44] = tested on: U251 CNS
[45] = tested on: OVCAR-5 ovarian
[46] = tested on: COLO 205 colon
[47] = tested on: HCT-15 colon
[48] = tested on: SK-OV-3 ovarian
[49] = tested on: RXF 393 renal
[50] = tested on: OVCAR-4 ovarian
[51] = tested on: HS 578T breast
[52] = tested on: A549 NSCLC
[53] = tested on: SF-268 CNS
[54] = tested on: MCF7 breast
[55] = tested on: KM12 colon
[56] = tested on: A498 renal
[57] = tested on: CCRF-CEM leukemia

In the case of `Cc1ccc(C(=O)Nc2ccc(CN3CCN(C)CC3)c(C(F)(F)F)c2)cc1C#Cc1cnc2cccnn12`, the GI50 [1] was 298 nM, the TGI [1] was 4.41 µM and the GI50 [2] was 423 nM and 712 nM. For the same compound, the TGI [2] was 1570 nM and 3720 nM, the GI50 [3] was 340 nM and 349 nM and the TGI [3] was 1520 nM and 3190 nM. For the same compound, the GI50 [4] was 274 nM and 388 nM, the TGI [4] was 1090 nM and 1820 nM and the GI50 [5] was 635 nM and 1790 nM. For the same compound, the TGI [5] was 2.27 µM and 5.14 µM, the GI50 [6] was 763 nM and the TGI [6] was 4.07 µM. For the same compound, the GI50 [7] was 178 nM and 336 nM, the TGI [7] was 973 nM and 1160 nM and the GI50 [8] was 413 nM and 849 nM. The TGI [8] was 1530 nM and 3730 nM, the GI50 [9] was 367 nM and 1080 nM and the TGI [9] was 1460 nM and 3750 nM. The GI50 [10] was 367 nM and 742 nM, the TGI [10] was 1510 nM and 3700 nM and the GI50 [11] was 428 nM and 903 nM. For the same compound, the TGI [11] was 1690 nM and 4100 nM, the GI50 [12] was 104 nM and 306 nM and the TGI [12] was 785 nM and 2030 nM. For the same compound, the GI50 [13] was 579 nM and 1380 nM, the TGI [13] was 1860 nM and 4050 nM and the GI50 [14] was 540 nM and 1680 nM. The TGI [14] was 2.07 µM and 4.37 µM, the GI50 [15] was 255 nM and 669 nM and the TGI [15] was 722 nM and 2180 nM. The GI50 [16] was 377 nM and 1020 nM, the TGI [16] was 1660 nM and 3030 nM and the GI50 [17] was 447 nM and 383 nM. The TGI [17] was 2110 nM and 1980 nM, the GI50 [18] was 350 nM and 703 nM and the TGI [18] was 2.02 µM and 4.45 µM. The GI50 [19] was 272 nM and 269 nM, the TGI [19] was 1280 nM and 1810 nM and the GI50 [20] was 474 nM. For the same compound, the TGI [20] was 2860 nM, the GI50 [21] was 306 nM and 1060 nM and the TGI [21] was 1520 nM. The GI50 [22] was 162 nM and 351 nM, the TGI [22] was 737 nM and 3420 nM and the GI50 [23] was 419 nM and 649 nM. The TGI [23] was 1370 nM and 2880 nM, the GI50 [24] was 964 nM and the TGI [24] was 4.15 µM. For the same compound, the GI50 [25] was 790 nM and 2740 nM, the TGI [25] was 2.04 µM and 4.66 µM and the GI50 [26] was 300 nM and 469 nM. For the same compound, the TGI [26] was 1290 nM and 3420 nM, the GI50 [27] was 215 nM and 317 nM and the TGI [27] was 1050 nM and 1240 nM. The GI50 [28] was 260 nM and 753 nM, the TGI [28] was 1230 nM and 3620 nM and the GI50 [29] was 973 nM and 2700 nM. The TGI [29] was 2.28 µM and 4.67 µM, the GI50 [30] was 422 nM and 440 nM and the TGI [30] was 1580 nM and 3880 nM. The GI50 [31] was 319 nM and 538 nM, the TGI [31] was 1280 nM and 3260 nM and the GI50 [32] was 262 nM and 515 nM. The TGI [32] was 1260 nM and 3450 nM, the GI50 [33] was 1150 nM and 2570 nM and the TGI [33] was 2.45 µM and 5.19 µM. For the same compound, the GI50 [34] was 785 nM and 1360 nM, the TGI [34] was 2.07 µM and 4.2 µM and the GI50 [35] was 387 nM and 1030 nM. The TGI [35] was 2.15 µM and 4.54 µM, the GI50 [36] was 191 nM and 322 nM and the TGI [36] was 1090 nM and 3240 nM. For the same compound, the GI50 [37] was 217 nM and 492 nM, the TGI [37] was 579 nM and 1430 nM and the GI50 [38] was 627 nM and 1150 nM. For the same compound, the TGI [38] was 3.01 µM and 4.26 µM, the GI50 [39] was 327 nM and 1260 nM and the TGI [39] was 1.75 µM and 4.27 µM. The GI50 [40] was 283 nM and 594 nM, the TGI [40] was 1520 nM and 4120 nM and the GI50 [41] was 1140 nM and 2190 nM. For the same compound, the TGI [41] was 3.2 µM and 5.59 µM, the GI50 [42] was 536 nM and 1560 nM and the TGI [42] was 2.04 µM and 4.39 µM. The GI50 [43] was 235 nM and 464 nM, the TGI [43] was 1050 nM and 3430 nM and the GI50 [44] was 473 nM and 1220 nM. The TGI [44] was 1680 nM and 3940 nM, the GI50 [45] was 410 nM and 808 nM and the TGI [45] was 1.64 µM and 4.69 µM. For the same compound, the GI50 [46] was 328 nM and 879 nM, the TGI [46] was 1240 nM and 3010 nM and the GI50 [47] was 313 nM and 501 nM. The TGI [47] was 1270 nM and 3420 nM, the GI50 [48] was 342 nM and 1160 nM and the TGI [48] was 1220 nM and 3740 nM. The GI50 [49] was 224 nM and 530 nM, the TGI [49] was 972 nM and 2210 nM and the GI50 [50] was 171 nM and 479 nM. For the same compound, the TGI [50] was 1640 nM and 4320 nM, the GI50 [51] was 364 nM and 544 nM and the TGI [51] was 2520 nM. For the same compound, the GI50 [52] was 377 nM and 1310 nM, the TGI [52] was 1550 nM and 3790 nM and the GI50 [53] was 474 nM and 730 nM. For the same compound, the TGI [53] was 2.06 µM and 4.27 µM, the GI50 [54] was 720 nM and 1290 nM and the TGI [54] was 2.17 µM and 4.42 µM. The GI50 [55] was 45.5 nM and 131 nM, the TGI [55] was 1220 nM and 3720 nM and the GI50 [56] was 299 nM and 470 nM. The TGI [56] was 1070 nM and 1850 nM, the GI50 [57] was 618 nM and 1650 nM and the TGI [57] was 5.21 µM and 5.63 µM.
